Measured values reported in US11414379B2, “SPAK kinase inhibitors as neuroprotective agents” (United States Government as represented by the Department …, priority 2018, dated 2022).

Tests used:
Experiment in all cases: Kinase panel (Dundee profiling)
Assay type in all cases: biochemical
[1] = target: MKK1 (Homo sapiens, UniProt Q02750); details: read-out: % residual kinase activity
Procedure: (§1) The kinase selectivity of ZT-1a was further assessed using standard radioisotopic enzymatic assays against a panel of 140 recombinant kinases (Dundee profiling, Table 2) (Bain et al. (2007) The Biochemical journal 408, 297-315). ZT-1a at a concentration of 10 μM inhibited only MAPKAP-K2 activity 85±7% compared to DMSO control, representing high kinase selectivity.
(§2) Referring to Table 2, ZT-1a was tested at 10 and 1 μM against a panel of 140 recombinant kinases in an enzymatic activity-based assay performed by the International Centre for Kinase Profiling in the MRC Protein Phosphorylation and Ubiquitylation Unit. Values represent % residual kinase activity (mean+/−SEM, n=3). Kinases labelled with an asterick* are inhibited ≥50% by ZT-1a.

[2] = target: IR (Homo sapiens, UniProt P06213); details: read-out: % residual kinase activity
Procedure: as §1, §2

[3] = target: IRAK4 (Homo sapiens, UniProt Q9NWZ3); details: read-out: % residual kinase activity
Procedure: as §1, §2

[4] = target: JNK1 (Homo sapiens, UniProt P45983); details: read-out: % residual kinase activity
JNK1, sequence (P45983 whole entry, species assumed): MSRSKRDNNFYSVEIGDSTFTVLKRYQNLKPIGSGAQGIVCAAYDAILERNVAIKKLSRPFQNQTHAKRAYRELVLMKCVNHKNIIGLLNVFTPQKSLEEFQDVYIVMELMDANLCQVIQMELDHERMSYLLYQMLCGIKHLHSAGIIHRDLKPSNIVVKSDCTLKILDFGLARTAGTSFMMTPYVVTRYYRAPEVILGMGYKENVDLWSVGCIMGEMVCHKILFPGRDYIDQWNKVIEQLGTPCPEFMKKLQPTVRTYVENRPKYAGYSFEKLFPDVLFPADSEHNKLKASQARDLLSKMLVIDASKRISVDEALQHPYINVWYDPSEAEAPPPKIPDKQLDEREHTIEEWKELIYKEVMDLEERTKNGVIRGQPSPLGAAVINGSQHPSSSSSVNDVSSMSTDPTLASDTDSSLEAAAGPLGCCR
Procedure: as §1, §2

[5] = target: MPSK1 (Homo sapiens, UniProt O75716); details: read-out: % residual kinase activity
MPSK1, sequence (O75716 whole entry, species assumed): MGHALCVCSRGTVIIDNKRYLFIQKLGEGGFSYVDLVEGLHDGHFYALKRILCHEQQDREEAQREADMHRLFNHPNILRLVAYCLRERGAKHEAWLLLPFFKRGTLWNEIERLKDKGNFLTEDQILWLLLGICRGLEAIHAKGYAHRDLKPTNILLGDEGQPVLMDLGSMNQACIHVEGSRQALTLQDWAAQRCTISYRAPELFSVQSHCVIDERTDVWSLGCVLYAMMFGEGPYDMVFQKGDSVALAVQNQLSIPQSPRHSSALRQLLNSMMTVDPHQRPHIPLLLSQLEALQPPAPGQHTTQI
Procedure: as §1, §2

[6] = target: PKD1 (Homo sapiens, UniProt Q15139); details: read-out: % residual kinase activity
PKD1, sequence (Q15139 whole entry): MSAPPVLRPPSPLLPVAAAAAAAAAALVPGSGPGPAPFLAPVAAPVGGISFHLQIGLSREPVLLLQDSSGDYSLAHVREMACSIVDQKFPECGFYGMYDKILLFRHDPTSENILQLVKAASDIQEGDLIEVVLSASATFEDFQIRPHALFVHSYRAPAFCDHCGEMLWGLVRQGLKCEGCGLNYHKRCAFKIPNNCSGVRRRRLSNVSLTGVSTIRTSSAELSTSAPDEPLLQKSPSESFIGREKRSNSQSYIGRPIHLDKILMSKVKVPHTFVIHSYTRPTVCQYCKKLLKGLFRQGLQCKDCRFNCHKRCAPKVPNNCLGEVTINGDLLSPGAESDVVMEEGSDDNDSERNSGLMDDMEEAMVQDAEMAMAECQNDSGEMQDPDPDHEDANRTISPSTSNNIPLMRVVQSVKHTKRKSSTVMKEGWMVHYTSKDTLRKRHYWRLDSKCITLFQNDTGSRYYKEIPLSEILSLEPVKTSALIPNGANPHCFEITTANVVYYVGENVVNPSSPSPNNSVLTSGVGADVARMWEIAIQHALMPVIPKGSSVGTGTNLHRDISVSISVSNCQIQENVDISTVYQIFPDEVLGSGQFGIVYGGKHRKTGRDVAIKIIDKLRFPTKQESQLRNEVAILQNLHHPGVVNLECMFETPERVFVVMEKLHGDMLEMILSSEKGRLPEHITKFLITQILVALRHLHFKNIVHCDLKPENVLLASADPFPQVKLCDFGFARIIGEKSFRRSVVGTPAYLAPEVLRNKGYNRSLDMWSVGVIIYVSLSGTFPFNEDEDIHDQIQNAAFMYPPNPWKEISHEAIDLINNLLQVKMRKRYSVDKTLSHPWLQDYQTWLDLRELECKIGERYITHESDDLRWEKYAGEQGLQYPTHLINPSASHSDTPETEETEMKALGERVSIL
Procedure: as §1, §2

[7] = target: MAP4K3 (Homo sapiens, UniProt Q8IVH8); details: read-out: % residual kinase activity
Procedure: as §1, §2

[8] = target: TAK1 (Homo sapiens, UniProt O43318); details: read-out: % residual kinase activity
Procedure: as §1, §2

[9] = target: EPH-B3 (Homo sapiens, UniProt P54753); details: read-out: % residual kinase activity
Procedure: as §1, §2

[10] = target: IGF-1R (Homo sapiens, UniProt P08069); details: read-out: % residual kinase activity
Procedure: as §1, §2

[11] = target: PIM3 (Homo sapiens, UniProt Q86V86); details: read-out: % residual kinase activity
Procedure: as §1, §2

[12] = target: TESK1 (Homo sapiens, UniProt Q15569); details: read-out: % residual kinase activity
Procedure: as §1, §2

[13] = target: ULK2 (Homo sapiens, UniProt Q8IYT8); details: read-out: % residual kinase activity
ULK2, sequence (Q8IYT8 whole entry, species assumed): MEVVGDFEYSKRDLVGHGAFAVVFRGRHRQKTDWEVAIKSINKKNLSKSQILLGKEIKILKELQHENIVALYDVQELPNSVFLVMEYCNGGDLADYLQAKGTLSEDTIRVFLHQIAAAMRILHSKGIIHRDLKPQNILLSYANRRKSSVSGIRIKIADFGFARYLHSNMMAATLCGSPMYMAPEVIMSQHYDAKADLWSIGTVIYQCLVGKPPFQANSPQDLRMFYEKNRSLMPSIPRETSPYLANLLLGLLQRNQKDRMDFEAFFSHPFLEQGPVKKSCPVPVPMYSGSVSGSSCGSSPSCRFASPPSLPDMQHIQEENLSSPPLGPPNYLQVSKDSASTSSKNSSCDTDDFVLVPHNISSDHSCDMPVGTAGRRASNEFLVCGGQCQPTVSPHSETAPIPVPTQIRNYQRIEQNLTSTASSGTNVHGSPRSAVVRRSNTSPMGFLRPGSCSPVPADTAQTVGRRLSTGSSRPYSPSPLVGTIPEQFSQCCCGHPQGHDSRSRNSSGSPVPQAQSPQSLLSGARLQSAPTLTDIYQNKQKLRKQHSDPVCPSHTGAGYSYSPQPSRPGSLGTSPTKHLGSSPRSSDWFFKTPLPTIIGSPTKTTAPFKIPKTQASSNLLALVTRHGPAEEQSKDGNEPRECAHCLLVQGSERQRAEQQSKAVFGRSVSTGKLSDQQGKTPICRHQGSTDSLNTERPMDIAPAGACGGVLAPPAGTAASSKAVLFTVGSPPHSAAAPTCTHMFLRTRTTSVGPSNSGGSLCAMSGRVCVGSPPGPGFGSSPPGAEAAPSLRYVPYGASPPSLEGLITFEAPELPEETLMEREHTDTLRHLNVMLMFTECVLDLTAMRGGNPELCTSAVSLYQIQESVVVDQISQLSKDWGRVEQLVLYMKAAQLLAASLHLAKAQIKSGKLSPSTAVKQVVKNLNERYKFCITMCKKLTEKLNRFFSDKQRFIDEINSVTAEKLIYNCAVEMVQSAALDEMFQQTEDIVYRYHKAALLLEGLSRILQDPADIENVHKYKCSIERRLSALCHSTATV
Procedure: as §1, §2

[14] = target: CHK1 (Homo sapiens, UniProt O14757); details: read-out: % residual kinase activity
Procedure: as §1, §2

[15] = target: DYRK1A (Homo sapiens, UniProt Q13627); details: read-out: % residual kinase activity
Procedure: as §1, §2

[16] = target: DYRK2 (Homo sapiens, UniProt Q92630); details: read-out: % residual kinase activity
Procedure: as §1, §2

[17] = target: HIPK1 (Homo sapiens, UniProt Q86Z02); details: read-out: % residual kinase activity
Procedure: as §1, §2

[18] = target: PDGFRA (Homo sapiens, UniProt P16234); details: read-out: % residual kinase activity
PDGFRA, sequence (P16234 24-1089, species assumed): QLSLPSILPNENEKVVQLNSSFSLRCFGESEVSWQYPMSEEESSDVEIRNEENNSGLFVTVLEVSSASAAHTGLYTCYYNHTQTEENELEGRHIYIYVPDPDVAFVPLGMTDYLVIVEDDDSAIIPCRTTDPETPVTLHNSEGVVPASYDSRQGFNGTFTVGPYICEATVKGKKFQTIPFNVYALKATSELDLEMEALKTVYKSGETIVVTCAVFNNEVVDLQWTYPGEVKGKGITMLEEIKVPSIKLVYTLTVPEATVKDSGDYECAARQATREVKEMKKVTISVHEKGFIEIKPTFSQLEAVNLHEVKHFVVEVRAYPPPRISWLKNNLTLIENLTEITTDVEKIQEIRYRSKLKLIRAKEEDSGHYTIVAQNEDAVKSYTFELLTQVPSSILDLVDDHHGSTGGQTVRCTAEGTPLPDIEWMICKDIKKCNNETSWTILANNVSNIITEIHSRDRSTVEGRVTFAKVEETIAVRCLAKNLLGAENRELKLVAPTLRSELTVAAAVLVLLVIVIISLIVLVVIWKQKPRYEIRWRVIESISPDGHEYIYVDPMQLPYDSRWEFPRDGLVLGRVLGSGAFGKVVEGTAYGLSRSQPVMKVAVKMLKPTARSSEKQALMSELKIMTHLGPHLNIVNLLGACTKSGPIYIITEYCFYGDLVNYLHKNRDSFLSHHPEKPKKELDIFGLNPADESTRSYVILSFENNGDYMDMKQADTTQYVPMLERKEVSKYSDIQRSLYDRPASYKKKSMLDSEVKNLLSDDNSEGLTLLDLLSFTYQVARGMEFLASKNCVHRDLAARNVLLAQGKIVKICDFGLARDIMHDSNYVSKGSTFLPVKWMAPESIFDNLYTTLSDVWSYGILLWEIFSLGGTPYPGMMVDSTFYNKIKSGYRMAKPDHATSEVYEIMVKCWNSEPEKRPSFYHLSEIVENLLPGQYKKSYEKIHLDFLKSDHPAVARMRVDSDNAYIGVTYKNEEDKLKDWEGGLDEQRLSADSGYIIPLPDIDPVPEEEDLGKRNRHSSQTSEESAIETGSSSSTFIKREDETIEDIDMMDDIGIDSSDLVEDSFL
Procedure: as §1, §2

[19] = target: p38g MAPK (Homo sapiens, UniProt P53778); details: read-out: % residual kinase activity
Procedure: as §1, §2

[20] = target: MAPKAP-K2 (Homo sapiens, UniProt P49137)
MAPKAP-K2, sequence (P49137 whole entry, species assumed): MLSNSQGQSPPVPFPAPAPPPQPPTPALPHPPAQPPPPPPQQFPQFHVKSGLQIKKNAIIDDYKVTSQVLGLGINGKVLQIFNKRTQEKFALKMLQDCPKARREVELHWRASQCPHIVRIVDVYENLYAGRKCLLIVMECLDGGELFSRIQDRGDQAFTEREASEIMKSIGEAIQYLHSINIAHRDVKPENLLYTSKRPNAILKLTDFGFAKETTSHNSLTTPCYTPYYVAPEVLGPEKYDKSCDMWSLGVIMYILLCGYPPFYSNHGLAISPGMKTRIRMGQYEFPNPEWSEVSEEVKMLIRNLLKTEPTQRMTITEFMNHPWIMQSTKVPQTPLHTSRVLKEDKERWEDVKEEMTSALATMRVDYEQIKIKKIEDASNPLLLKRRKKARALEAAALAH
Procedure: as §1, §2

[21] = target: TGFBR1 (Homo sapiens, UniProt P36897); details: read-out: % residual kinase activity
TGFBR1, sequence (P36897 34-503, species assumed): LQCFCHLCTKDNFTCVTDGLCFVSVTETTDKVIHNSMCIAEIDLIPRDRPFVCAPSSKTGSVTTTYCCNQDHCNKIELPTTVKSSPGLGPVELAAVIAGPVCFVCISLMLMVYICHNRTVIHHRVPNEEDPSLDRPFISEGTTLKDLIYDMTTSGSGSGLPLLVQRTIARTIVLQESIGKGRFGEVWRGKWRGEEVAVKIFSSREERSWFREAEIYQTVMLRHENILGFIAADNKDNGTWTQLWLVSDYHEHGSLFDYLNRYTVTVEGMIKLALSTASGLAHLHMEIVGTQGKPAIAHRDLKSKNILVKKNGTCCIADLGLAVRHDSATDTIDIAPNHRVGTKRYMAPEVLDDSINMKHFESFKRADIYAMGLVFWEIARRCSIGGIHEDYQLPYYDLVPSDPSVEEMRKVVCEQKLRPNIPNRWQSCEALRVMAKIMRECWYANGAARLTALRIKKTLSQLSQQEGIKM
Procedure: as §1, §2

[22] = target: NEK2a (Homo sapiens, UniProt P51955); details: read-out: % residual kinase activity
Procedure: as §1, §2

[23] = target: DDR2 (Homo sapiens, UniProt Q16832); details: read-out: % residual kinase activity
Procedure: as §1, §2

[24] = target: MST3 (Homo sapiens, UniProt Q9Y6E0); details: read-out: % residual kinase activity
Procedure: as §1, §2

[25] = target: PHK (Homo sapiens, UniProt Q16816); details: read-out: % residual kinase activity
Procedure: as §1, §2

[26] = target: SRPK1 (Homo sapiens, UniProt Q96SB4); details: read-out: % residual kinase activity
Procedure: as §1, §2

[27] = target: CDK9-Cyclin T1 (Homo sapiens, UniProt P50750); details: read-out: % residual kinase activity
Procedure: as §1, §2

[28] = target: STK33 (Homo sapiens, UniProt Q9BYT3); details: read-out: % residual kinase activity
Procedure: as §1, §2

[29] = target: IRR (Homo sapiens, UniProt P14616); details: read-out: % residual kinase activity
Procedure: as §1, §2

[30] = target: CAMK1 (Homo sapiens, UniProt Q14012); details: read-out: % residual kinase activity
Procedure: as §1, §2

[31] = target: CK1δ (Homo sapiens, UniProt P48730); details: read-out: % residual kinase activity
Procedure: as §1, §2

Which remaining activity at 1 µM ([1]; 1 μM) does the source give for `Cc1cc(C(C#N)c2ccc(Cl)cc2)c(Cl)cc1NC(=O)c1cc(Cl)ccc1O` (stereo not drawn) [ZT-1a, 5-chloro-N-(5-chloro-4-((4-chlorophenyl)(cyano)methyl)-2-methylphenyl)-2-hydroxy-benzamide] here?
Its remaining activity at 1 µM is 106 ± 2%.

What about the remaining activity at 10 µM ([1]; 10 μM) of the same compound?
Its remaining activity at 10 µM is 114 ± 17%.

What about the remaining activity at 1 µM ([2]; 1 μM) of the same compound?
The remaining activity at 1 µM was 105 ± 2%.

And the remaining activity at 10 µM ([2]; 10 μM)?
Its remaining activity at 10 µM is 86 ± 13%.

And the remaining activity at 1 µM ([3]; 1 μM)?
The remaining activity at 1 µM was 127%.

And the remaining activity at 10 µM ([3]; 10 μM)?
Its remaining activity at 10 µM is 127 ± 11%.

What about the remaining activity at 1 µM ([4]; 1 μM) of the same compound?
The remaining activity at 1 µM was 106 ± 4%.

And the remaining activity at 10 µM ([4]; 10 μM)?
Its remaining activity at 10 µM is 110 ± 5%.

What about the remaining activity at 1 µM ([5]; 1 μM) of the same compound?
The remaining activity at 1 µM was 110 ± 6%.

What about the remaining activity at 10 µM ([5]; 10 μM) of the same compound?
Its remaining activity at 10 µM is 105 ± 2%.

And the remaining activity at 1 µM ([6]; 1 μM)?
The remaining activity at 1 µM was 89%.

What about the remaining activity at 10 µM ([6]; 10 μM) of the same compound?
Its remaining activity at 10 µM is 79 ± 10%.

And the remaining activity at 1 µM ([7]; 1 μM)?
The remaining activity at 1 µM was 134 ± 5%.

What about the remaining activity at 10 µM ([7]; 10 μM) of the same compound?
Its remaining activity at 10 µM is 88 ± 2%.

What about the remaining activity at 1 µM ([8]; 1 μM) of the same compound?
Its remaining activity at 1 µM is 117 ± 22%.

What about the remaining activity at 10 µM ([8]; 10 μM) of the same compound?
Its remaining activity at 10 µM is 103 ± 5%.

What about the remaining activity at 1 µM ([9]; 1 μM) of the same compound?
The remaining activity at 1 µM was 88 ± 6%.

And the remaining activity at 10 µM ([9]; 10 μM)?
The remaining activity at 10 µM was 84 ± 6%.

What about the remaining activity at 1 µM ([10]; 1 μM) of the same compound?
Its remaining activity at 1 µM is 145 ± 2%.

And the remaining activity at 10 µM ([10]; 10 μM)?
Its remaining activity at 10 µM is 123 ± 3%.

And the remaining activity at 1 µM ([11]; 1 μM)?
The remaining activity at 1 µM was 115 ± 12%.

What about the remaining activity at 10 µM ([11]; 10 μM) of the same compound?
The remaining activity at 10 µM was 99 ± 2%.

What about the remaining activity at 1 µM ([12]; 1 μM) of the same compound?
Its remaining activity at 1 µM is 109 ± 3%.

And the remaining activity at 10 µM ([12]; 10 μM)?
The remaining activity at 10 µM was 77 ± 10%.

What about the remaining activity at 1 µM ([13]; 1 μM) of the same compound?
Its remaining activity at 1 µM is 110 ± 11%.

What about the remaining activity at 10 µM ([13]; 10 μM) of the same compound?
The remaining activity at 10 µM was 49 ± 9%.

What about the remaining activity at 1 µM ([14]; 1 μM) of the same compound?
Its remaining activity at 1 µM is 111 ± 11%.

What about the remaining activity at 10 µM ([14]; 10 μM) of the same compound?
Its remaining activity at 10 µM is 109 ± 8%.

What about the remaining activity at 1 µM ([15]; 1 μM) of the same compound?
Its remaining activity at 1 µM is 119 ± 7%.

And the remaining activity at 10 µM ([15]; 10 μM)?
Its remaining activity at 10 µM is 103 ± 1%.

And the remaining activity at 1 µM ([16]; 1 μM)?
The remaining activity at 1 µM was 111 ± 15%.

What about the remaining activity at 10 µM ([16]; 10 μM) of the same compound?
Its remaining activity at 10 µM is 97 ± 10%.

What about the remaining activity at 1 µM ([17]; 1 μM) of the same compound?
The remaining activity at 1 µM was 98 ± 13%.

What about the remaining activity at 10 µM ([17]; 10 μM) of the same compound?
The remaining activity at 10 µM was 90 ± 4%.

And the remaining activity at 1 µM ([18]; 1 μM)?
Its remaining activity at 1 µM is 84 ± 11%.

And the remaining activity at 10 µM ([18]; 10 μM)?
The remaining activity at 10 µM was 80 ± 7%.

What about the remaining activity at 1 µM ([19]; 1 μM) of the same compound?
The remaining activity at 1 µM was 100 ± 11%.

And the remaining activity at 10 µM ([19]; 10 μM)?
The remaining activity at 10 µM was 100 ± 6%.

What about the inhibition at 10 µM ([20]; 10 μM, read-out: inhibition of MAPKAP-K2 activity compared to DMSO control) of the same compound?
The inhibition at 10 µM was 85 ± 7%.

And the remaining activity at 1 µM ([20]; MAPKAP-K2, 1 μM, read-out: % residual kinase activity)?
The remaining activity at 1 µM was 91 ± 13%.

And the remaining activity at 10 µM ([20]; MAPKAP-K2, 10 μM, read-out: % residual kinase activity)?
The remaining activity at 10 µM was 13 ± 7%.

What about the remaining activity at 1 µM ([21]; 1 μM) of the same compound?
Its remaining activity at 1 µM is 63 ± 9%.

And the remaining activity at 10 µM ([21]; 10 μM)?
Its remaining activity at 10 µM is 77 ± 5%.

And the remaining activity at 1 µM ([22]; 1 μM)?
The remaining activity at 1 µM was 85 ± 12%.

And the remaining activity at 10 µM ([22]; 10 μM)?
The remaining activity at 10 µM was 91 ± 6%.

What about the remaining activity at 1 µM ([23]; 1 μM) of the same compound?
Its remaining activity at 1 µM is 111 ± 20%.

And the remaining activity at 10 µM ([23]; 10 μM)?
Its remaining activity at 10 µM is 99 ± 8%.

What about the remaining activity at 1 µM ([24]; 1 μM) of the same compound?
Its remaining activity at 1 µM is 109 ± 8%.

And the remaining activity at 10 µM ([24]; 10 μM)?
The remaining activity at 10 µM was 113 ± 15%.

What about the remaining activity at 1 µM ([25]; 1 μM) of the same compound?
Its remaining activity at 1 µM is 97 ± 3%.

And the remaining activity at 10 µM ([25]; 10 μM)?
The remaining activity at 10 µM was 107 ± 2%.

What about the remaining activity at 1 µM ([26]; 1 μM) of the same compound?
The remaining activity at 1 µM was 104 ± 5%.

What about the remaining activity at 10 µM ([26]; 10 μM) of the same compound?
Its remaining activity at 10 µM is 73 ± 20%.

What about the remaining activity at 1 µM ([27]; 1 μM) of the same compound?
The remaining activity at 1 µM was 104%.

And the remaining activity at 10 µM ([27]; 10 μM)?
The remaining activity at 10 µM was 108 ± 1%.

What about the remaining activity at 1 µM ([28]; 1 μM) of the same compound?
The remaining activity at 1 µM was 114 ± 7%.

What about the remaining activity at 10 µM ([28]; 10 μM) of the same compound?
The remaining activity at 10 µM was 100 ± 5%.

And the remaining activity at 1 µM ([29]; 1 μM)?
Its remaining activity at 1 µM is 105 ± 5%.

What about the remaining activity at 10 µM ([29]; 10 μM) of the same compound?
Its remaining activity at 10 µM is 95 ± 4%.

And the remaining activity at 1 µM ([30]; 1 μM)?
Its remaining activity at 1 µM is 60 ± 5%.

And the remaining activity at 10 µM ([30]; 10 μM)?
The remaining activity at 10 µM was 71 ± 31%.

What about the remaining activity at 1 µM ([31]; 1 μM) of the same compound?
The remaining activity at 1 µM was 116 ± 5%.

What about the remaining activity at 10 µM ([31]; 10 μM) of the same compound?
The remaining activity at 10 µM was 114 ± 9%.
